Here are results for eleven compounds from ChEMBL document CHEMBL1201862, “PubChem BioAssay data set” (2004).

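1) Cells in 96-well plates. 2) Compound, 48 h, 5 concentrations. 3) Linear interpolation between surrounding doses. 4) Unreached endpoint = highest concentration. GI50 = concentration required for 50% inhibition of growth.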 The source made the active and inactive calls. No stated cut-off is given here; in the data, active = GI50 up to about 1.1 µM and inactive = higher. Where only a bound is given, the exact number is not on record here.

Among the test systems are CAKI-1; A498; NCI-H460; MDA-MB-435; MDA-MB-231; NCI-H23; SW-620; MDA-N; ACHN; NCI/ADR-RES; HCC 2998; Malme-3M; SN12C; LOX IMVI; OVCAR-3; SF-268; UACC-62; SR; SK-MEL-5; NCI-H226.
Common to all, as to assay: NCI anticancer screen, dose series, 48 h

In the case of `O=C(c1cccs1)N(C(=S)OCCOc1ccccc1)c1ccccc1`, the GI50 with CAKI-1 was 27.2 µM (inactive); in the assay with A498, 25.5 µM (inactive); in the assay on NCI-H460, 34.8 µM (inactive); with MDA-MB-435, 17 µM (inactive); in the assay with MDA-MB-231, 24.3 µM (inactive); in the assay on NCI-H23 it was 20.7 µM (inactive). The GI50 in the assay with SW-620 was 25.5 µM (inactive); in the assay with MDA-N it was 17.2 µM (inactive); with ACHN, 27.7 µM (inactive); with NCI/ADR-RES it was 20.9 µM (inactive); in the assay on HCC 2998 it was 24.7 µM (inactive); with Malme-3M it was 31.3 µM (inactive). In addition, the GI50 with SN12C is 22.1 µM (inactive); in the assay with LOX IMVI it was 17.1 µM (inactive); with OVCAR-3, 21 µM (inactive); in the assay with SF-268 it was 34.1 µM (inactive); with UACC-62, 18.2 µM (inactive).
`Clc1ccc(/C=C/c2nc3ccccc3s2)cc1Cl`: the GI50 in the assay on CAKI-1 is 19.8 µM (inactive); with SR, > 100 µM (inactive); in the assay on NCI-H460, 53.5 µM (inactive); with MDA-MB-435, > 100 µM (inactive); in the assay with MDA-MB-231, 16.2 µM (inactive); with NCI-H23 it was 94 µM (inactive). The GI50 in the assay with SW-620 was 1.73 µM (inactive); in the assay with MDA-N it was 70.5 µM (inactive); in the assay with ACHN it was 29.4 µM (inactive); with NCI/ADR-RES, 63.2 µM (inactive); with HCC 2998 it was 97.3 µM (inactive); with SK-MEL-5 it was 27.2 µM (inactive). Further, the GI50 in the assay with Malme-3M is 48.2 µM (inactive); in the assay on SN12C, > 100 µM (inactive); in the assay with LOX IMVI, 1.42 µM (inactive); in the assay with OVCAR-3 it was 50.6 µM (inactive); with SF-268 it was 42.8 µM (inactive); in the assay on UACC-62 it was 59.2 µM (inactive).
Regarding `C=C(C)[C@@H]1CCC2=C[C@H](OC2=O)[C@@]2(C)C[C@@H]2C(=O)/C=C(/C)C(=O)[C@H]1OC(C)=O`, the GI50 is 14.2 µM (inactive) with CAKI-1; 23.2 µM (inactive) in the assay with A498; 30.1 µM (inactive) with NCI-H460; 23.9 µM (inactive) in the assay with NCI-H226; 13.2 µM (inactive) in the assay on MDA-MB-435; 36.4 µM (inactive) with MDA-MB-231. For the same compound, the GI50 with NCI-H23 was 11.6 µM (inactive); in the assay with SW-620, 14 µM (inactive); in the assay on MDA-N, 8.67 µM (inactive); with ACHN, 17.3 µM (inactive); with NCI/ADR-RES, 26.5 µM (inactive); in the assay with HCC 2998, 21.7 µM (inactive). The GI50 with SK-MEL-5 was 16.2 µM (inactive); in the assay with Malme-3M, 12.1 µM (inactive); in the assay with SN12C, 21.5 µM (inactive); in the assay with LOX IMVI it was 7.78 µM (inactive); with OVCAR-3 it was 14.3 µM (inactive); with SF-268, 28.1 µM (inactive). The GI50 in the assay with UACC-62 was 24.2 µM (inactive).
In the case of `COC1C(N(C)C)=C(c2ccccc2)C(=O)N2CCc3ccccc3C12` (stereo not drawn), the GI50 in the assay on CAKI-1, with A498, with NCI-H226, in the assay on MDA-MB-435, with MDA-MB-231 and in the assay with NCI-H23 was > 100 µM (inactive) each time. The GI50 in the assay with SW-620, in the assay on MDA-N, in the assay with ACHN, with NCI/ADR-RES, with SK-MEL-5 and with Malme-3M was > 100 µM (inactive) each time. Further, the GI50 in the assay on SN12C, in the assay on LOX IMVI, with SF-268 and in the assay on UACC-62 was > 100 µM (inactive) in each case.
For the compound `CC1=C2C(=O)NN=C2CCN1c1ccc(Br)cc1`, the GI50 is > 100 µM (inactive) in the assay on CAKI-1; 68.7 µM (inactive) in the assay on A498; > 100 µM (inactive) in the assay with NCI-H460; > 100 µM (inactive) in the assay with NCI-H226; > 100 µM (inactive) in the assay with MDA-MB-435; > 100 µM (inactive) in the assay with MDA-MB-231. For the same compound, the GI50 in the assay on NCI-H23, in the assay with SW-620, in the assay with MDA-N, with ACHN, in the assay with NCI/ADR-RES and in the assay on SK-MEL-5 was > 100 µM (inactive) in each case. For the same compound, the GI50 in the assay with Malme-3M is 35.3 µM (inactive); in the assay with SN12C, > 100 µM (inactive); with LOX IMVI, 62.8 µM (inactive); in the assay with OVCAR-3, > 100 µM (inactive); in the assay on SF-268, > 100 µM (inactive); in the assay on UACC-62, > 100 µM (inactive).
For `Cc1nn2c(C(=O)N/N=C/c3ccc([N+](=O)[O-])cc3)c(C)nc2s1`, the GI50 with CAKI-1 is > 100 µM (inactive); with A498, > 100 µM (inactive); in the assay on NCI-H460, > 100 µM (inactive); with NCI-H226 it was > 100 µM (inactive); in the assay on MDA-MB-435, > 100 µM (inactive); in the assay on MDA-MB-231 it was 24.1 µM (inactive). The GI50 was > 100 µM (inactive) with NCI-H23; > 100 µM (inactive) with SW-620; > 100 µM (inactive) in the assay with MDA-N; 50 µM (inactive) in the assay on ACHN; > 100 µM (inactive) with NCI/ADR-RES; > 100 µM (inactive) in the assay on HCC 2998. Also, the GI50 in the assay on SK-MEL-5, with Malme-3M, with SN12C, with LOX IMVI, in the assay with OVCAR-3 and in the assay on SF-268 was > 100 µM (inactive) throughout. For the same compound, the GI50 with UACC-62 is > 100 µM (inactive).
With `COc1cccc(C2c3cc4c(cc3OC(O)C2C)OCO4)c1OC` (stereo not drawn), the GI50 in the assay with CAKI-1 is 2.14 µM (inactive); in the assay on SR, 2.48 µM (inactive); in the assay on A498, 4.49 µM (inactive); with NCI-H460, 3.71 µM (inactive); in the assay on NCI-H226, 2.51 µM (inactive); in the assay on MDA-MB-435 it was 5.97 µM (inactive). The GI50 with MDA-MB-231 is 14.2 µM (inactive); with NCI-H23, 14.4 µM (inactive); in the assay with SW-620, 3.64 µM (inactive); in the assay with MDA-N it was 8.67 µM (inactive); in the assay on ACHN, 3.18 µM (inactive); in the assay with HCC 2998, 14.9 µM (inactive). Also, the GI50 with SK-MEL-5 is 7.14 µM (inactive); in the assay on Malme-3M, 11 µM (inactive); with SN12C, 4.78 µM (inactive); in the assay with LOX IMVI it was 4.05 µM (inactive); in the assay on OVCAR-3 it was 2.79 µM (inactive); in the assay on SF-268, 7.36 µM (inactive). For the same compound, the GI50 with UACC-62 was 13.9 µM (inactive).
Consider `COCN1C(=O)[C@@H]2C[C@@H](OC/C=C/CBr)CN2C(=O)c2ccccc21`, for which the GI50 in the assay on CAKI-1 is 17.4 µM (inactive); in the assay on A498, 26.1 µM (inactive); in the assay on NCI-H226, 9.38 µM (inactive); with MDA-MB-435, 14.9 µM (inactive); in the assay on MDA-MB-231, 17.5 µM (inactive); with NCI-H23, 23.2 µM (inactive). The GI50 in the assay with SW-620 is 13.9 µM (inactive); in the assay on MDA-N, 15.8 µM (inactive); with ACHN, 19.9 µM (inactive); in the assay on NCI/ADR-RES, 26.9 µM (inactive); with SK-MEL-5, 14.4 µM (inactive); in the assay with Malme-3M, 15.6 µM (inactive). The GI50 in the assay with SN12C is 14.1 µM (inactive); in the assay with LOX IMVI, 2.04 µM (inactive); with SF-268, 25.1 µM (inactive); in the assay with UACC-62, 19 µM (inactive).
For the compound `O=C(/C=C(\N=P(c1ccccc1)(c1ccccc1)c1ccccc1)C(F)(F)C(F)(F)C(F)(F)C(F)(F)C(F)(F)C(F)(F)C(F)(F)F)c1ccccc1`, the GI50 in the assay with CAKI-1 is > 100 µM (inactive); with SR, > 100 µM (inactive); with NCI-H460, > 100 µM (inactive); in the assay on MDA-MB-435 it was > 100 µM (inactive); in the assay with MDA-MB-231 it was > 10 µM (inactive); in the assay on NCI-H23, > 100 µM (inactive). Further, the GI50 in the assay on SW-620, in the assay with MDA-N, in the assay with ACHN, in the assay on NCI/ADR-RES, in the assay with HCC 2998 and in the assay on SK-MEL-5 was > 100 µM (inactive) each time. Moreover, the GI50 with Malme-3M, in the assay on SN12C, with LOX IMVI, with OVCAR-3, in the assay on SF-268 and in the assay on UACC-62 was > 100 µM (inactive) each time.
Regarding `C/C(=N\Nc1nc2ccccc2[nH]1)c1cnccn1`, the GI50 in the assay on CAKI-1 is 0.447 µM (active); in the assay on A498, 1.98 µM (inactive); with NCI-H460, 0.394 µM (active); with NCI-H226, 0.441 µM (active); with MDA-MB-435, 0.822 µM (active); in the assay with MDA-MB-231, 2.88 µM (inactive). In addition, the GI50 is 1.71 µM (inactive) in the assay on NCI-H23; 0.4 µM (active) with SW-620; 1.9 µM (inactive) with MDA-N; 0.231 µM (active) in the assay with ACHN; 0.64 µM (active) with NCI/ADR-RES; 19.6 µM (inactive) with HCC 2998. Besides, the GI50 with SK-MEL-5 was 0.881 µM (active); with Malme-3M it was 0.791 µM (active); in the assay on SN12C it was 1.25 µM (inactive); in the assay with LOX IMVI, 0.361 µM (active); in the assay on OVCAR-3, 0.296 µM (active); with SF-268, 0.53 µM (active). Besides, the GI50 with UACC-62 is 0.652 µM (active).
As to `COc1cc([C@@H]2c3cc4c(c(O)c3C[C@H]3COC(=O)[C@@H]32)OCO4)cc(OC)c1OC` [BETA-PELTATIN A], the GI50 was 0.015 µM (active) in the assay with CAKI-1; 109 µM (inactive) in the assay on SR; 0.0254 µM (active) in the assay with NCI-H460; 0.302 µM (active) in the assay with NCI-H226; 0.00596 µM (active) with MDA-MB-231; 0.015 µM (active) in the assay on SW-620. Moreover, the GI50 in the assay on MDA-N was 0.000284 µM (active); in the assay on ACHN, 0.0241 µM (active); in the assay with HCC 2998 it was 0.015 µM (active); in the assay on Malme-3M, 0.0156 µM (active); in the assay with SN12C, 0.015 µM (active); with LOX IMVI, 0.0267 µM (active). Besides, the GI50 with OVCAR-3 and in the assay on SF-268 was 0.015 µM (active) throughout.
